According to patent US20250368649A1, “TETRAHYDROPYRIDOPYRIMIDINE PAN-KRAS INHIBITORS” (Mirati Therapeutics, Inc., priority 2022, published 2025):

How the values were obtained:
[1] = target: KRas WT (Homo sapiens, UniProt P01116); test: KRas binding assay (TR-FRET displacement), KRas WT; conditions: single point, 10 nM compound
[2] = target: KRas G12A (Homo sapiens, UniProt P01116, G12A); format: binding; conditions: single point, 10 nM compound, read-out: Binding to KRas (% inhibition at 10 nM) G12A
KRas G12A, sequence (P01116 1-169 isoform P01116-2 G12A): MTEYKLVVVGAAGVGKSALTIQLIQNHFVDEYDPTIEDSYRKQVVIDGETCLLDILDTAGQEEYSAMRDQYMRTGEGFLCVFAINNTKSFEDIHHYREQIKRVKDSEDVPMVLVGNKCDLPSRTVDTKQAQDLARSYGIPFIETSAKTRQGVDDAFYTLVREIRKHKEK

[3] = target: KRas G12C (Homo sapiens, UniProt P01116, G12C); format: binding; conditions: single point, 10 nM compound, read-out: Binding to KRas (% inhibition at 10 nM) G12C
KRas G12C, sequence (P01116 1-169 isoform P01116-2 G12C): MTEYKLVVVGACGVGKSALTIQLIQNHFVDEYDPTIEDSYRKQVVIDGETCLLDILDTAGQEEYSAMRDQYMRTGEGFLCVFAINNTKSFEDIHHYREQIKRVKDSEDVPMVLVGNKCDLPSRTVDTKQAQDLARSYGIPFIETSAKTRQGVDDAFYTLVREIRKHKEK

[4] = target: KRas G12S (Homo sapiens, UniProt P01116, G12S); format: binding; conditions: single point, 10 nM compound, read-out: Binding to KRas (% inhibition at 10 nM) G12S
KRas G12S, sequence (P01116 1-169 isoform P01116-2 G12S): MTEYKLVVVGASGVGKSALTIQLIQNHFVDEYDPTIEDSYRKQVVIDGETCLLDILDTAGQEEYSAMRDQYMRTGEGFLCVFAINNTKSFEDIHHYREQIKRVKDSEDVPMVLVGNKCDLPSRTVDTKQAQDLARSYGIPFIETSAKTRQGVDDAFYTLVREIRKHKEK

[5] = target: KRas G13D (Homo sapiens, UniProt P01116, G13D); format: binding; conditions: single point, 10 nM compound, read-out: Binding to KRas (% inhibition at 10 nM) G13D
KRas G13D, sequence (P01116 1-169 isoform P01116-2 G13D): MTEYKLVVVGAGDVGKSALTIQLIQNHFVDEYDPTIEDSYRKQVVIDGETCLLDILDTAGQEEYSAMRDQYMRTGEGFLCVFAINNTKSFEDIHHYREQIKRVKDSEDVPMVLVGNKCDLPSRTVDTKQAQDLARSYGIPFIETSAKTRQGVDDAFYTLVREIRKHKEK

[6] = target: KRas Q61H (Homo sapiens, UniProt P01116, Q61H); test: KRas binding assay (TR-FRET displacement), KRas Q61H; conditions: single point, 10 nM compound
KRas Q61H, sequence (P01116 1-169 isoform P01116-2 Q61H): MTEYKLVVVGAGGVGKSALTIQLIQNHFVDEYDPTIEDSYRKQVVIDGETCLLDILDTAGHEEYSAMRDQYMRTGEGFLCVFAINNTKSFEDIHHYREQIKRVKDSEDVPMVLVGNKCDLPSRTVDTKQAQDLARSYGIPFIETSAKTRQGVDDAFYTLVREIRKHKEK

[7] = test system: MKN1 cells; test: Inhibition of KRas-mediated phosphorylation of ERK (Cisbio HTRF pERK), MKN1 cells; format: cell-based; conditions: Homo sapiens, MKN-1, 3 hour compound incubation, Cisbio pERK HTRF
Method in brief: (§1)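 Day 1: 6,000 cells/well plated, RPMI + 10% FBS.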

[8] = test system: PSN1 cells; test: Inhibition of KRas-mediated phosphorylation of ERK (Cisbio HTRF pERK), PSN1 cells; format: cell-based; conditions: Homo sapiens, PSN1, 3 h, 3 hour compound incubation, Cisbio pERK HTRF
Method in brief: as §1

[9] = test system: ASPC1 cells; test: Inhibition of KRas-mediated phosphorylation of ERK (Cisbio HTRF pERK), ASPC1 cells; format: cell-based; conditions: Homo sapiens, AsPC-1 cells; for IC50: ASPC1, 3 h, 3 hr compound incubation, Cisbio pERK HTRF
[10] = test system: H727 cells; test: Inhibition of KRas-mediated phosphorylation of ERK (Cisbio HTRF pERK), H727 cells; format: cell-based; conditions: Homo sapiens; for IC50: NCI-H727, 3 h, 3 hr compound incubation, Cisbio pERK HTRF
[11] = test system: A549 cells; test: Inhibition of KRas-mediated phosphorylation of ERK (Cisbio HTRF pERK), A549 cells; format: cell-based; conditions: Homo sapiens; for IC50: A549, 3 h, 3 hr compound incubation, Cisbio pERK HTRF; for inhibition at 0.1 µM: single point at 100 nM, 3 hrs compound incubation
[12] = test system: H460 cells; test: Inhibition of KRas-mediated phosphorylation of ERK (Cisbio HTRF pERK), H460 cells; format: cell-based; conditions: Homo sapiens, NCI-H460, 3 h, 3 hr compound incubation, Cisbio pERK HTRF
[13] = test system: HCT116 cells; test: Inhibition of KRas-mediated phosphorylation of ERK (Cisbio HTRF pERK), HCT116 cells; format: cell-based; conditions: Homo sapiens, HCT-116, 3 h, 3 hr compound incubation, Cisbio pERK HTRF
[14] = test system: H358 cells; test: Inhibition of KRas-mediated phosphorylation of ERK (Cisbio HTRF pERK), H358 cells; format: cell-based; conditions: Homo sapiens; for IC50: NCI-H358, 3 h, 3 hr compound incubation, Cisbio pERK HTRF; for inhibition at 0.1 µM: NCI-H358, single point at 100 nM, 3 hrs compound incubation
[15] = target: KRas G12D (Homo sapiens, UniProt P01116, G12D); test: biochemical; conditions: Binding to KRas (IC50 nM) G12D, TR-FRET displacement, KRas G12D
KRas G12D, sequence (P01116 1-169 isoform P01116-2 G12D): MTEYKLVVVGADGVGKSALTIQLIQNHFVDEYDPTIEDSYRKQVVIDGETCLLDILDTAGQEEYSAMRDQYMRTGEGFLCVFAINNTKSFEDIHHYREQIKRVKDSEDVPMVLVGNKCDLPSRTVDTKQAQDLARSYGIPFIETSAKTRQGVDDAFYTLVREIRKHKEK

[16] = target: KRas G12R (Homo sapiens, UniProt P01116, G12R); test: biochemical; conditions: Binding to KRas (IC50 nM) G12R, TR-FRET displacement, KRas G12R
KRas G12R, sequence (P01116 1-169 isoform P01116-2 G12R): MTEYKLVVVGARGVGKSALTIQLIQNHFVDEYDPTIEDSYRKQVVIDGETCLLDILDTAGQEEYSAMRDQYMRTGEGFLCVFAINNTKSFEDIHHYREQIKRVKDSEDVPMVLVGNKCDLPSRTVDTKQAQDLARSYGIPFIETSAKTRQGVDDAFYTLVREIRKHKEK

[17] = target: KRas G12V (Homo sapiens, UniProt P01116, G12V); test: biochemical; conditions: Binding to KRas (IC50 nM) G12V, TR-FRET displacement, KRas G12V
KRas G12V, sequence (P01116 1-169 isoform P01116-2 G12V): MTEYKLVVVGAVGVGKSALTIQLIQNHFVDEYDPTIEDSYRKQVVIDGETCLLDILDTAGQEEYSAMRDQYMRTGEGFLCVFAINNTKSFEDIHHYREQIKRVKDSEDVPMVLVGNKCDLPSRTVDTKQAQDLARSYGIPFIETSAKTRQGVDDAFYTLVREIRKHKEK

KRas WT, sequence (P01116 1-169 isoform P01116-2): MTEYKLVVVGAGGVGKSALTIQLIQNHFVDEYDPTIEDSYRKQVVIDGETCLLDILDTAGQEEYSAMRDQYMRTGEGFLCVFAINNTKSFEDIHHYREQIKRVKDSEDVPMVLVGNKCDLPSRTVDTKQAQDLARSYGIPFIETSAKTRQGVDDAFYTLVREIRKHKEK

Row | Structure (SMILES) | inhibition at 0.01 µM [1] [%] | inhibition at 0.01 µM [2] [%] | inhibition at 0.01 µM [3] [%] | inhibition at 0.01 µM [4] [%] | inhibition at 0.01 µM [5] [%] | inhibition at 0.01 µM [6] [%] | IC50 [7] [nM] | IC50 [8] [nM] | IC50 [9] [nM] | IC50 [10] [nM] | IC50 [11] [nM] | inhibition at 0.1 µM [11] [%] | IC50 [12] [nM] | IC50 [13] [nM] | IC50 [14] [nM] | inhibition at 0.1 µM [14] [%] | IC50 [15] [nM] | IC50 [16] [nM] | IC50 [17] [nM] | other results
1 | CCc1c(F)ccc2cc(O)cc(N3CCc4c(nc(OC[C@@]56CCCN5C[C@H](F)C6)nc4N4CCCn5nc(C(=O)NC(C)C)c(Cl)c5C4)C3)c12 [Example 386, 3-chloro-5-(7-(8-ethyl-7-fluoro-3-hydroxynaphthalen-1-yl)-2-(((2R,7aS)-2-fluorotetrahydro-1H-pyrrolizin-7a(5H)-yl)methoxy)-5,6,7,8-tetrahydropyrido[3,4-d]pyrimidin-4-yl)-N-isopropyl-5,6,7,8-tetrahydro-4H-pyrazolo[1,5-a][1,4]diazepine-2-carboxamide] | 95 | 92 | 99 | 98 | 96 | 97 | 11.3 | 2710 | 1 | 2 | 4 | 88 | 19 | 39 | 1 | 91 | < 2 | < 2 | < 2 | –
2 | CCc1c(F)ccc2cc(O)cc(N3CCc4c(nc(OC[C@@]56CCCN5C[C@H](F)C6)nc4N4CCCn5nc(C(=O)N(C)C)c(Br)c5C4)C3)c12 [Example 387, 3-bromo-5-(7-(8-ethyl-7-fluoro-3-hydroxynaphthalen-1-yl)-2-(((2R,7aS)-2-fluorohexahydro-1H-pyrrolizin-7a-yl)methoxy)-5,6,7,8-tetrahydropyrido[3,4-d]pyrimidin-4-yl)-N,N-dimethyl-5,6,7,8-tetrahydro-4H-pyrazolo[1,5-a][1,4]diazepine-2-carboxamide] | 99 | 99 | 100 | 100 | 99 | 99 | 3 | 1800 | 1 | 2 | 1 | 89 | 7 | 14 | 1 | 100 | < 2 | < 2 | < 2 | inhibition at 0.1 µM ([9]; ASPC1, single point at 100 nM, 3 hrs compound incubation): 99%; inhibition at 0.1 µM ([10]; NCI-H727, single point at 100 nM, 3 hrs compound incubation): 85%
3 | CCc1c(F)ccc2cc(O)cc(N3CCc4c(nc(OC[C@@]56CCCN5C[C@H](F)C6)nc4N4CCCn5nc(C(=O)NC)c(Cl)c5C4)C3)c12 [Example 388, 3-chloro-5-(7-(8-ethyl-7-fluoro-3-hydroxynaphthalen-1-yl)-2-(((2R,7aS)-2-fluorohexahydro-1H-pyrrolizin-7a-yl)methoxy)-5,6,7,8-tetrahydropyrido[3,4-d]pyrimidin-4-yl)-N-methyl-5,6,7,8-tetrahydro-4H-pyrazolo[1,5-a][1,4]diazepine-2-carboxamide] | 98 | 94 | 100 | 99 | 98 | 99 | 8.1 | 2350 | 1 | 2 | 9 | 79 | 20 | 42 | 1 | 97 | < 2 | < 2 | < 2 | –
4 | CCc1c(F)ccc2cc(O)cc(N3CCc4c(nc(OC[C@@]56CCCN5C[C@H](F)C6)nc4N4CCCn5nc(C(=O)N(CC)CC)cc5C4)C3)c12 [Example 390, N,N-diethyl-5-(7-(8-ethyl-7-fluoro-3-hydroxynaphthalen-1-yl)-2-(((2R,7aS)-2-fluorohexahydro-1H-pyrrolizin-7a-yl)methoxy)-5,6,7,8-tetrahydropyrido[3,4-d]pyrimidin-4-yl)-5,6,7,8-tetrahydro-4H-pyrazolo[1,5-a][1,4]diazepine-2-carboxamide] | 95 | 95 | 99 | 98 | 95 | 97 | 9.6 | 3850 | 1 | 3 | 5 | 79 | 15 | 42 | 1 | 98 | < 2 | < 2 | < 2 | –
5 | CCc1c(F)ccc2cc(O)cc(N3CCc4c(nc(OC[C@@]56CCCN5C[C@H](F)C6)nc4N4CCCn5nnc(Cl)c5C4)C3)c12 [Example 391, 4-(4-(3-chloro-7,8-dihydro-4H-[1,2,3]triazolo[1,5-a][1,4]diazepin-5(6H)-yl)-2-(((2R,7aS)-2-fluorohexahydro-1H-pyrrolizin-7a-yl)methoxy)-5,6-dihydropyrido[3,4-d]pyrimidin-7(8H)-yl)-5-ethyl-6-fluoronaphthalen-2-ol] | 81 | 81 | 93 | 94 | 86 | 85 | 57.6 | > 10000 | 4 | 26 | – | 69 | 43 | 128 | – | 77 | < 2 | 3 | < 2 | –
6 | CCc1c(F)ccc2cc(O)cc(N3CCc4c(nc(OC[C@@]56CCCN5C[C@H](F)C6)nc4N4CCCn5nc6c(c5C4)CCCN6)C3)c12 [Example 392, 5-ethyl-6-fluoro-4-(2-(((2R,7aS)-2-fluorohexahydro-1H-pyrrolizin-7a-yl)methoxy)-4-(3,4,8,9-tetrahydro-1H-pyrido[2′,3′:3,4]pyrazolo[1,5-a][1,4]diazepin-6(2H,5H,7H)-yl)-5,6-dihydropyrido[3,4-d]pyrimidin-7(8H)-yl)naphthalen-2-ol] | 55 | 56 | 78 | 71 | 50 | 54 | 111 | > 10000 | 72 | 136 | – | 38 | 285 | 813 | – | 47 | 3 | < 2 | 2 | –
7 | CCc1c(F)ccc2cc(O)cc(N3CCc4c(nc(OC[C@@]56CCCN5C[C@H](F)C6)nc4N4CCCn5nc(NC)c(OC)c5C4)C3)c12 [Example 393, 5-ethyl-6-fluoro-4-(2-(((2R,7aS)-2-fluorohexahydro-1H-pyrrolizin-7a-yl)methoxy)-4-(3-methoxy-2-(methylamino)-7,8-dihydro-4H-pyrazolo[1,5-a][1,4]diazepin-5(6H)-yl)-5,6-dihydropyrido[3,4-d]pyrimidin-7(8H)-yl)naphthalen-2-ol] | 60 | 66 | 83 | 72 | 64 | 60 | 58.5 | > 10000 | 59 | 201 | – | 41 | 72 | 235 | – | 83 | 4 | 4 | 5 | –
